Tests used:
Assay in all cases: Test B preemergence/postemergence greenhouse plant response rating 0 to 10
rape = type: in vivo, Brassica napus; settings: 0 to 10 scale
Method in brief: (§1)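 Both application timings were run together: seeds got compound preemergence, and established seedlings (two to eighteen cm) got it postemergence. Non-phytotoxic solvent carried the chemical. Ratings are visual, versus controls, at twelve to sixteen days.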

barley = type: in vivo, Hordeum vulgare; settings: for Plant response rating, Barley: 0 to 10 scale
Method in brief: as §1

crabgrass = type: in vivo, Digitaria spp.; settings: for Plant response rating, Crabgrass: 0 to 10 scale
Method in brief: as §1

chickweed = type: in vivo, Stellaria media; settings: for Plant response rating, Chickweed: 0 to 10 scale
Method in brief: as §1

corn = type: in vivo, Zea mays; settings: for Plant response rating, Corn: 0 to 10 scale
Method in brief: as §1

wheat = type: in vivo, Triticum aestivum; settings: 0 to 10 scale
Method in brief: as §1

giant foxtail = type: in vivo, Setaria faberii; settings: 0 to 10 scale
Method in brief: as §1

sorghum = type: in vivo, Sorghum bicolor; settings: 0 to 10 scale
Method in brief: as §1

barnyardgrass = type: in vivo, Echinochloa crus-galli; settings: for Plant response rating, Barnyardgrass: 0 to 10 scale
Method in brief: as §1

SMILES	Plant response rating, Rape (rape; POSTEMERGENCE, Rate 50 g/ha)	Plant response rating, Rape (rape; POSTEMERGENCE, Rate 200 g/ha)	Plant response rating, Rape (rape; PREEMERGENCE, Rate 50 g/ha)	Plant response rating, Rape (rape; Rate 200 g/ha, PREEMERGENCE)	Plant response rating (0 to 10 scale), Barley (barley; POSTEMERGENCE, Rate 50 g/ha)	Plant response rating, Barley (barley; POSTEMERGENCE, Rate 200 g/ha)	Plant response rating, Barley (barley; PREEMERGENCE, Rate 50 g/ha)	Plant response rating, Barley (barley; Rate 200 g/ha, PREEMERGENCE)	Plant response rating (0 to 10 scale), Crabgrass (crabgrass; POSTEMERGENCE, Rate 50 g/ha)	Plant response rating, Crabgrass (crabgrass; POSTEMERGENCE, Rate 200 g/ha)	Plant response rating, Crabgrass (crabgrass; PREEMERGENCE, Rate 50 g/ha)	Plant response rating, Crabgrass (crabgrass; Rate 200 g/ha, PREEMERGENCE)	Plant response rating, Chickweed (chickweed; POSTEMERGENCE, Rate 200 g/ha)	Plant response rating, Chickweed (chickweed; PREEMERGENCE, Rate 50 g/ha)	Plant response rating, Chickweed (chickweed; Rate 200 g/ha, PREEMERGENCE)	Plant response rating (0 to 10 scale), Corn (corn; POSTEMERGENCE, Rate 50 g/ha)	Plant response rating, Corn (corn; POSTEMERGENCE, Rate 200 g/ha)	Plant response rating, Corn (corn; PREEMERGENCE, Rate 50 g/ha)	Plant response rating, Corn (corn; Rate 200 g/ha, PREEMERGENCE)	Plant response rating, Wheat (wheat; POSTEMERGENCE, Rate 50 g/ha)	other results
CC(C)Oc1cc(-c2nn3c(c2Cl)CCCC3)c(F)cc1Cl [Compound 21]	6	10	3	8	6	4	0	2	2	6	2	8	7	2	7	5	6	0	1	3	Plant response rating (0 to 10 scale), Chickweed (chickweed; POSTEMERGENCE, Rate 50 g/ha): 8; Plant response rating, Wheat (wheat; POSTEMERGENCE, Rate 200 g/ha): 8; Plant response rating, Wheat (wheat; PREEMERGENCE, Rate 50 g/ha): 3; Plant response rating, Wheat (wheat; Rate 200 g/ha, PREEMERGENCE): 2; Plant response rating, Giant foxtail (giant foxtail; POSTEMERGENCE, Rate 50 g/ha): 4; Plant response rating, Giant foxtail (giant foxtail; POSTEMERGENCE, Rate 200 g/ha): 7; Plant response rating, Giant foxtail (giant foxtail; PREEMERGENCE, Rate 50 g/ha): 5; Plant response rating, Giant foxtail (giant foxtail; Rate 200 g/ha, PREEMERGENCE): 9; Plant response rating, Sorghum (sorghum; POSTEMERGENCE, Rate 50 g/ha): 5; Plant response rating, Sorghum (sorghum; POSTEMERGENCE, Rate 200 g/ha): 6; Plant response rating, Sorghum (sorghum; PREEMERGENCE, Rate 50 g/ha): 0; Plant response rating, Sorghum (sorghum; Rate 200 g/ha, PREEMERGENCE): 2; Plant response rating (0 to 10 scale), Barnyardgrass (barnyardgrass; POSTEMERGENCE, Rate 50 g/ha): 6; Plant response rating, Barnyardgrass (barnyardgrass; POSTEMERGENCE, Rate 200 g/ha): 9; Plant response rating, Barnyardgrass (barnyardgrass; PREEMERGENCE, Rate 50 g/ha): 2; Plant response rating, Barnyardgrass (barnyardgrass; Rate 200 g/ha, PREEMERGENCE): 7
Fc1cc(Cl)c(OCc2ccccc2)cc1-c1nn2c(c1Cl)CCCC2 [Compound 22]	4	7	0	1	4	5	0	0	3	2	2	4	7	0	2	3	4	2	4	3	Plant response rating, Wheat (wheat; POSTEMERGENCE, Rate 200 g/ha): 4; Plant response rating, Wheat (wheat; PREEMERGENCE, Rate 50 g/ha): 0; Plant response rating, Wheat (wheat; Rate 200 g/ha, PREEMERGENCE): 1; Plant response rating, Giant foxtail (giant foxtail; POSTEMERGENCE, Rate 50 g/ha): 3; Plant response rating, Giant foxtail (giant foxtail; POSTEMERGENCE, Rate 200 g/ha): 4; Plant response rating, Giant foxtail (giant foxtail; PREEMERGENCE, Rate 50 g/ha): 3; Plant response rating, Giant foxtail (giant foxtail; Rate 200 g/ha, PREEMERGENCE): 9; Plant response rating, Sorghum (sorghum; POSTEMERGENCE, Rate 50 g/ha): 5; Plant response rating, Sorghum (sorghum; POSTEMERGENCE, Rate 200 g/ha): 5; Plant response rating, Sorghum (sorghum; PREEMERGENCE, Rate 50 g/ha): 0; Plant response rating, Sorghum (sorghum; Rate 200 g/ha, PREEMERGENCE): 3; Plant response rating (0 to 10 scale), Barnyardgrass (barnyardgrass; POSTEMERGENCE, Rate 50 g/ha): 3; Plant response rating, Barnyardgrass (barnyardgrass; POSTEMERGENCE, Rate 200 g/ha): 5; Plant response rating, Barnyardgrass (barnyardgrass; PREEMERGENCE, Rate 50 g/ha): 2; Plant response rating, Barnyardgrass (barnyardgrass; Rate 200 g/ha, PREEMERGENCE): 5
CCCOc1cc(-c2nn3c(c2Cl)CCCC3)c(F)cc1Cl [Compound 23]	6	10	3	6	3	3	0	0	2	6	2	9	9	0	6	4	6	0	6	2	Plant response rating, Wheat (wheat; POSTEMERGENCE, Rate 200 g/ha): 6; Plant response rating, Wheat (wheat; PREEMERGENCE, Rate 50 g/ha): 0; Plant response rating, Wheat (wheat; Rate 200 g/ha, PREEMERGENCE): 2; Plant response rating, Giant foxtail (giant foxtail; POSTEMERGENCE, Rate 50 g/ha): 5; Plant response rating, Giant foxtail (giant foxtail; POSTEMERGENCE, Rate 200 g/ha): 7; Plant response rating, Giant foxtail (giant foxtail; PREEMERGENCE, Rate 50 g/ha): 6; Plant response rating, Giant foxtail (giant foxtail; Rate 200 g/ha, PREEMERGENCE): 9; Plant response rating, Sorghum (sorghum; POSTEMERGENCE, Rate 50 g/ha): 4; Plant response rating, Sorghum (sorghum; POSTEMERGENCE, Rate 200 g/ha): 6; Plant response rating, Sorghum (sorghum; PREEMERGENCE, Rate 50 g/ha): 0; Plant response rating, Sorghum (sorghum; Rate 200 g/ha, PREEMERGENCE): 2; Plant response rating (0 to 10 scale), Barnyardgrass (barnyardgrass; POSTEMERGENCE, Rate 50 g/ha): 7; Plant response rating, Barnyardgrass (barnyardgrass; POSTEMERGENCE, Rate 200 g/ha): 9; Plant response rating, Barnyardgrass (barnyardgrass; PREEMERGENCE, Rate 50 g/ha): 4; Plant response rating, Barnyardgrass (barnyardgrass; Rate 200 g/ha, PREEMERGENCE): 6
